From PubChem BioAssay AID1963959 (Molecular Pharmacology Branch, DTP, NCI, 2024)

Tested on: T-47D spheroids with HUVEC/MSC, viability
Test: Anticancer human tumor T-47D cell line growth inhibition [PI3K];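 further: spheroids exposed to agents for seven days before reading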;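 on viability, T/C: percent of DMSO vehicle control luminescence so 100% = untreated growth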
Settings: for IC50: curve of first compound; for viability, T/C: stronger effect = lower value; active means viability on the fitted dose curve at most 10% of control; inactive means the rest
Excerpt: Combinatorial screen of targeted agents with the PI3K inhibitors inavolisib, alpelisib, duvelisib, and copanlisib in multi-cell type tumor spheroids
A high-throughput screen of multi-cell type tumor spheroids was designed to identify active combinations of targeted small molecules and PI3K pathway inhibitors. Complex spheroids include a stromal component modeled by human endothelial cells (HUVEC) and fibroblasts modeled by human mesenchymal stem cells (MSCs). The concentration ranges selected for each drug and investigational agent were based upon clinically achievable concentrations if the clinical Cmax of the agent was known.
Compounds. The drugs and investigational agents: inavolisib (NSC800729), alpelisib (NSC765974), duvelisib (NSC772469), copanlisib (NSC816437), ipatasertib (NSC767898), afuresertib (NSC778305), talazoparib (NSC767125), sapanisertib (NSC764658), selumetinib (NSC741078), tovorafenib (DAY101, NSC766906), vemurafenib (NSC761431), ravoxertinib (NSC781343), sotorasib (NSC818433), MRTX1133 (NSC 836407), abemaciclib (NSC 768073), palbociclib (NSC758247), venetoclax (NSC 766270), SY5609 (NSC837396), enzalutamide (NSC755605), and darolutamide (NSC825331), were obtained from the National Cancer Institute (NCI) Developmental Therapeutics Program Chemical Repository. The FDA-approved anticancer drug set is available from the NCI Developmental Therapeutics Program. […] The stock solutions were prepared in dimethyl sulfoxide (DMSO, Sigma-Aldrich, St. Louis, MO, cat. D2650) at 800-fold the tested concentration and stored at -70 degrees C prior to their use. All drugs and investigational agents were tested over a range starting from a high concentration at or near the clinical Cmax and decreasing in half-log increments. If the clinical Cmax for an agent had not been determined, the highest concentration tested was 10 microM.
Cell Culture. All cells were maintained in an incubator at 37 degrees C and 5% CO2 with 95% humidity. The PDC lines were cultured according to standard operating procedures established by the NCI PDMR (https://pdmr.cancer.gov/sops/default.htm). All PDCs were thawed and cultured in Matrigel-coated flasks prepared with a working solution of 1X Ham's F-12 nutrient mix, without supplementation (Invitrogen, Waltham, MA, cat. 11765054), 100 U/mL penicillin-streptomycin (Invitrogen, cat. 15140122), and 2.5% Matrigel (Corning Inc., Corning, NY, cat. 354248) for the first three passages. The 354836-022-R-J1-PDC, 475296-252-R-J1-PDC, and 997726-040-R-J2-PDC lines were cultured in 6A media, which includes advanced DMEM/F-12 (Thermo Fisher Scientific, cat. 12634028), 10 mM HEPES (Thermo Fisher Scientific, cat. 15630080), 1X GlutaMAX supplement (Thermo Fisher Scientific, cat. 35050061), 0.1 mg/mL primocin (InvivoGen, San Diego, CA, cat. ant-pm-2), 10% defined fetal bovine serum, heat inactivated (HyClone Laboratories Inc., Logan, UT, cat. SH30070.03HI), 50% L-WRN conditioned media (ATCC, cat. CRL-3276), 1.25 mM N-Acetyl-L-cysteine (Sigma-Aldrich, cat. A9165), 10 mM nicotinamide (Sigma-Aldrich, cat. N0636), 1X B-27 supplement (Thermo Fisher Scientific, cat. 17504044), 1X N-2 supplement (Thermo Fisher Scientific, cat. 17502048), and 10 microM Y-27632 dihydrochloride (Tocris Bioscience, Bristol, United Kingdom, cat. 1254). The 624824-186-R-J2-PDC line was cultured in 6C/Colon 1B media, which includes all 6A media components plus 50 ng/mL human EGF recombinant protein (Thermo Fisher Scientific, cat. PHG0311). […]

[1] = second compound 0.0316 µM, first compound 0.0316 µM
[2] = second compound 0.0316 µM, first compound 0.1 µM
[3] = second compound 0.0316 µM, first compound 0.316 µM
[4] = second compound 0.0316 µM, first compound 1 µM
[5] = second compound 0.0316 µM, first compound 3.16 µM
[6] = second compound 0.0316 µM, first compound 10 µM
[7] = second compound 0.1 µM, first compound 0.0316 µM
[8] = second compound 0.1 µM, first compound 0.1 µM
[9] = second compound 0.1 µM, first compound 0.316 µM
[10] = second compound 0.1 µM, first compound 1 µM
[11] = second compound 0.1 µM, first compound 3.16 µM
[12] = second compound 0.1 µM, first compound 10 µM
[13] = second compound 0.316 µM, first compound 0.0316 µM
[14] = second compound 0.316 µM, first compound 0.1 µM
[15] = second compound 0.316 µM, first compound 0.316 µM
[16] = second compound 0.316 µM, first compound 1 µM
[17] = second compound 0.316 µM, first compound 3.16 µM
[18] = second compound 0.316 µM, first compound 10 µM
[19] = second compound 1 µM, first compound 0.0316 µM
[20] = second compound 1 µM, first compound 0.1 µM
[21] = second compound 1 µM, first compound 0.316 µM
[22] = second compound 1 µM, first compound 1 µM
[23] = second compound 1 µM, first compound 3.16 µM
[24] = second compound 1 µM, first compound 10 µM
[25] = second compound 0.00316 µM, first compound 0.0316 µM
[26] = second compound 0.00316 µM, first compound 0.1 µM
[27] = second compound 0.00316 µM, first compound 0.316 µM
[28] = second compound 0.00316 µM, first compound 1 µM
[29] = second compound 0.00316 µM, first compound 3.16 µM
[30] = second compound 0.00316 µM, first compound 10 µM
[31] = second compound 0.01 µM, first compound 0.0316 µM
[32] = second compound 0.01 µM, first compound 0.1 µM
[33] = second compound 0.01 µM, first compound 0.316 µM
[34] = second compound 0.01 µM, first compound 1 µM
[35] = second compound 0.01 µM, first compound 3.16 µM
[36] = second compound 0.01 µM, first compound 10 µM

CC1(C)CCC(CN2CCN(c3ccc(C(=O)NS(=O)(=O)c4ccc(NCC5CCOCC5)c([N+](=O)[O-])c4)c(Oc4cnc5[nH]ccc5c4)c3)CC2)=C(c2ccc(Cl)cc2)C1 + Cc1nc(NC(=O)N2CCCC2C(N)=O)sc1-c1ccnc(C(C)(C)C(F)(F)F)c1
< 0.0316 µM: IC50 (second compound 10 µM)
inactive: viability, T/C [1] 106% | viability, T/C [2] 94.2% | viability, T/C [3] 111% | viability, T/C [4] 99.2% | viability, T/C [5] 78.1% | viability, T/C [6] 87.8% | viability, T/C [7] 118% | viability, T/C [8] 92.3% | viability, T/C [9] 92.9% | viability, T/C [10] 89.6% | viability, T/C [11] 108% | viability, T/C [12] 73.3% | viability, T/C [13] 98.8% | viability, T/C [14] 101% | viability, T/C [15] 89.3% | viability, T/C [16] 94.3% | viability, T/C [17] 94% | viability, T/C [18] 80.1% | viability, T/C [19] 99.4% | viability, T/C [20] 99.1% | viability, T/C [21] 102% | viability, T/C [22] 85.3% | viability, T/C [23] 76.9% | viability, T/C [24] 71.2% | viability, T/C (second compound 3.16 µM, first compound 0.0316 µM) 78.5% | viability, T/C (second compound 3.16 µM, first compound 0.1 µM) 65.6% | viability, T/C (second compound 3.16 µM, first compound 0.316 µM) 64.2% | viability, T/C (second compound 3.16 µM, first compound 1 µM) 59.8% | viability, T/C (second compound 3.16 µM, first compound 3.16 µM) 64.5% | viability, T/C (second compound 3.16 µM, first compound 10 µM) 57.1% | viability, T/C (second compound 10 µM, first compound 0.0316 µM) 40.1% | viability, T/C (second compound 10 µM, first compound 0.1 µM) 41.7% | viability, T/C (second compound 10 µM, first compound 0.316 µM) 37% | viability, T/C (second compound 10 µM, first compound 1 µM) 31.4% | viability, T/C (second compound 10 µM, first compound 3.16 µM) 30.2% | viability, T/C (second compound 10 µM, first compound 10 µM) 34.2%
> 10 µM: IC50 (second compound 0.0316 µM) | IC50 (second compound 0.1 µM) | IC50 (second compound 0.316 µM) | IC50 (second compound 1 µM) | IC50 (second compound 3.16 µM)

C=CC(=O)N1CCN(c2nc(=O)n(-c3c(C)ccnc3C(C)C)c3nc(-c4c(O)cccc4F)c(F)cc23)C(C)C1 (stereo unspecified) + COc1c(OCCCN2CCOCC2)ccc2c3n(c(=NC(=O)c4cnc(N)nc4)nc12)CCN3
< 0.0316 µM: IC50 (second compound 0.1 µM) | IC50 (second compound 0.316 µM) | IC50 (second compound 1 µM)
inactive: viability, T/C [25] 100% | viability, T/C [26] 124% | viability, T/C [27] 106% | viability, T/C [28] 108% | viability, T/C [29] 101% | viability, T/C [30] 113% | viability, T/C [31] 101% | viability, T/C [32] 91.6% | viability, T/C [33] 96.1% | viability, T/C [34] 91% | viability, T/C [35] 138% | viability, T/C [36] 104% | viability, T/C [1] 84.5% | viability, T/C [2] 67.6% | viability, T/C [3] 74.6% | viability, T/C [4] 109% | viability, T/C [5] 95.6% | viability, T/C [6] 90.6% | viability, T/C [7] 46.2% | viability, T/C [8] 51% | viability, T/C [9] 41.1% | viability, T/C [10] 45.1% | viability, T/C [11] 48.3% | viability, T/C [12] 53.1% | viability, T/C [13] 21.3% | viability, T/C [14] 18.4% | viability, T/C [15] 18.2% | viability, T/C [16] 21% | viability, T/C [17] 20.9% | viability, T/C [18] 35%
> 10 µM: IC50 (second compound 0.00316 µM) | IC50 (second compound 0.01 µM) | IC50 (second compound 0.0316 µM)
active: viability, T/C [19] 6.05% | viability, T/C [20] 6.58% | viability, T/C [21] 5.84% | viability, T/C [22] 9.25% | viability, T/C [23] 11.6% | viability, T/C [24] 19.2%

CC1(C)CCC(Nc2ncc(C(F)(F)F)c(-c3c[nH]c4c(P(C)(C)=O)c(C#N)ccc34)n2)CN1 (stereo unspecified) + CC(Nc1ccc2c(c1)OCCn1cc(N3C(=O)OCC3C(F)F)nc1-2)C(N)=O
4.42 µM: IC50 (second compound 0.1 µM)
< 0.0316 µM: IC50 (second compound 0.316 µM) | IC50 (second compound 1 µM)
inactive: viability, T/C [25] 66.4% | viability, T/C [26] 70% | viability, T/C [27] 59.1% | viability, T/C [28] 73.5% | viability, T/C [29] 76.9% | viability, T/C [30] 48.8% | viability, T/C [31] 72.3% | viability, T/C [32] 68.3% | viability, T/C [33] 67.5% | viability, T/C [34] 72.3% | viability, T/C [35] 82.4% | viability, T/C [36] 47.6% | viability, T/C [1] 65.4% | viability, T/C [2] 68.3% | viability, T/C [3] 60.2% | viability, T/C [4] 68.7% | viability, T/C [5] 67% | viability, T/C [6] 36.2% | viability, T/C [7] 62% | viability, T/C [8] 65.2% | viability, T/C [9] 46.3% | viability, T/C [10] 47.3% | viability, T/C [11] 61.4% | viability, T/C [12] 34.2% | viability, T/C [13] 53.1% | viability, T/C [14] 42.6% | viability, T/C [15] 37.8% | viability, T/C [16] 36.2% | viability, T/C [17] 40.4% | viability, T/C [18] 17.1% | viability, T/C [19] 40.8% | viability, T/C [20] 30.8% | viability, T/C [21] 29.7% | viability, T/C [22] 29.5% | viability, T/C [23] 26.4% | viability, T/C [24] 6.28%
> 10 µM: IC50 (second compound 0.00316 µM) | IC50 (second compound 0.01 µM)
5.84 µM: IC50 (second compound 0.0316 µM)
